# In patent US20260274892A1, “MACROCYCLIC BROAD SPECTRUM ANTIBIOTICS” (RQx Pharmaceuticals, Inc., priority 2017, published 2026):
# System: Escherichia coli ATCC 25922
# Assay: Minimum inhibitory concentration (MIC), CLSI broth micro-dilution, E. coli
# Assay type: cell-based
# Conditions: Escherichia coli, ATCC25922, 22 h, Table 7, cation adjusted Mueller Hinton Broth + 0.002% Tween-80, 35° C.
# In short: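 Antibacterial potency is measured as MIC by the CLSI broth dilution method. Bacteria at OD600 0.0005 in Tween-80-supplemented cation-adjusted Mueller Hinton broth face ten twofold compound dilutions for 22 h at 35° C.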
row,SMILES,MIC [µM]
1,"Cc1nc(-c2ccc(C(C)(C)C)cc2)nc(C)c1C(=O)N[C@@H](CNS(N)(=O)=O)C(=O)N(C)[C@@H]1C(=O)N[C@@H](C)C(=O)N[C@H](C(=O)NCC#N)Cc2ccc(OC[C@@H](O)CN)c(c2)-c2cc1ccc2OC[C@@H](O)CN (racemic) [Compound 581, rac-(8S,11S,14S)-N-(cyanomethyl)-11-methyl-14-[methyl-[rac-(2S)-2-[[2-(4-tert-butylphenyl)-4,6-dimethyl-pyrimidine-5-carbonyl]amino]-3-(sulfamoylamino)propanoyl]amino]-10,13-dioxo-3,18-bis[rac-(2S)-3-amino-2-hydroxy-propoxy]-9,12-diazatricyclo[13.3.1.12,6]icosa-1(18),2(20),3,5,15(19),16-hexaene-8-carboxamide]",0.25
2,"Cc1nc(-c2ccc(C(C)(C)C)cc2)nc(C)c1C(=O)N[C@@H](CNS(N)(=O)=O)C(=O)N(C)[C@@H]1C(=O)N[C@@H](C)C(=O)N[C@H](C(=O)NCC#N)Cc2ccc(OCCN)c(c2)-c2cc1cc(OCCN)c2O (racemic) [Compound 584, rac-(8S,11S,14S)-3,17-bis(2-aminoethoxy)-N-(cyanomethyl)-18-hydroxy-11-methyl-14-[methyl-[rac-(2S)-2-[[2-(4-tert-butylphenyl)-4,6-dimethyl-pyrimidine-5-carbonyl]amino]-3-(sulfamoylamino)propanoyl]amino]-10,13-dioxo-9,12-diazatricyclo[13.3.1.12,6]icosa-1(18),2(20),3,5,15(19),16-hexaene-8-carboxamide]",0.5
3,"COc1c(OC[C@H](O)CN)cc2cc1-c1cc(ccc1OC[C@H](O)CN)C[C@@H](C(=O)NCC#N)NC(=O)[C@H](C)NC(=O)[C@H]2N(C)C(=O)[C@H](CCN)NC(=O)c1c(C)nc(-c2ccc(C(C)(C)C)cc2)nc1C (racemic) [Compound 586, rac-(8S,11S,14S)-N-(cyanomethyl)-18-methoxy-11-methyl-14-[methyl-[rac-(2S)-4-amino-2-[[2-(4-tert-butylphenyl)-4,6-dimethyl-pyrimidine-5-carbonyl]amino]butanoyl]amino]-10,13-dioxo-3,17-bis[rac-(2R)-3-amino-2-hydroxy-propoxy]-9,12-diazatricyclo[13.3.1.12,6]icosa-1(18),2(20),3,5,15(19),16-hexaene-8-carboxamide]",0.19
4,"Cc1nc(-c2ccc(C(C)(C)C)cc2)nc(C)c1C(=O)N[C@@H](CCN)C(=O)N(C)[C@@H]1C(=O)N[C@@H](C)C(=O)N[C@H](C(=O)NCC#N)Cc2ccc(OC[C@H](O)CN)c(c2)-c2cc1cc(OCCN)c2O (racemic) [Compound 587, rac-(8S,11S,14S)-17-(2-aminoethoxy)-N-(cyanomethyl)-18-hydroxy-11-methyl-14-[methyl-[rac-(2S)-4-amino-2-[[2-(4-tert-butylphenyl)-4,6-dimethyl-pyrimidine-5-carbonyl]amino]butanoyl]amino]-10,13-dioxo-3-[rac-(2R)-3-amino-2-hydroxy-propoxy]-9,12-diazatricyclo[13.3.1.12,6]icosa-1(18),2(20),3,5,15(19),16-hexaene-8-carboxamide]",0.094
5,"Cc1nc(-c2ccc(C(C)(C)C)cc2)nc(C)c1C(=O)N[C@@H](CCN)C(=O)N(C)[C@@H]1C(=O)N[C@@H](C)C(=O)N[C@H](C(=O)NCC#N)Cc2ccc(OCCN)c(c2)-c2cc1cc(OC[C@H](O)CN)c2O (racemic) [Compound 588, rac-(8S,11S,14S)-3-(2-aminoethoxy)-N-(cyanomethyl)-18-hydroxy-11-methyl-14-[methyl-[rac-(2S)-4-amino-2-[[2-(4-tert-butylphenyl)-4,6-dimethyl-pyrimidine-5-carbonyl]amino]butanoyl]amino]-10,13-dioxo-17-[rac-(2R)-3-amino-2-hydroxy-propoxy]-9,12-diazatricyclo[13.3.1.12,6]icosa-1(18),2(20),3,5,15(19),16-hexaene-8-carboxamide]",0.094
6,"Cc1nc(-c2ccc(C(C)(C)C)cc2)nc(C)c1C(=O)N[C@@H](CCN)C(=O)N(C)[C@@H]1C(=O)N[C@@H](C)C(=O)N[C@H](C(=O)NCC#N)Cc2ccc(OCCN)c(c2)-c2cc1cc(NCCN)c2O (racemic) [Compound 589, rac-(8S,11S,14S)-3-(2-aminoethoxy)-17-(2-aminoethylamino)-N-(cyanomethyl)-18-hydroxy-11-methyl-14-[methyl-[rac-(2S)-4-amino-2-[[2-(4-tert-butylphenyl)-4,6-dimethyl-pyrimidine-5-carbonyl]amino]butanoyl]amino]-10,13-dioxo-9,12-diazatricyclo[13.3.1.12,6]icosa-1(18),2(20),3,5,15(19),16-hexaene-8-carboxamide]",1
7,"COc1c(OC[C@H](O)CN)cc2cc1-c1cc(cc(OC[C@H](O)CN)c1OC)[C@H](N(C)C(=O)[C@H](CCN)NC(=O)c1c(C)nc(-c3ccc(C(C)(C)C)cc3)nc1C)C(=O)N[C@@H](C)C(=O)N[C@H](C(=O)NCC#N)C2 (racemic) [Compound 591, rac-(8S,11S,14S)-N-(cyanomethyl)-3,18-dimethoxy-11-methyl-14-[methyl-[rac-(2S)-4-amino-2-[[2-(4-tert-butylphenyl)-4,6-dimethyl-pyrimidine-5-carbonyl]amino]butanoyl]amino]-10,13-dioxo-4,17-bis[rac-(2R)-3-amino-2-hydroxy-propoxy]-9,12-diazatricyclo[13.3.1.12,6]icosa-1(18),2(20),3,5,15(19),16-hexaene-8-carboxamide]",0.25
8,"COc1c(OCCN)cc2cc1-c1cc(cc(OCCN)c1OC)[C@H](N(C)C(=O)[C@H](CCN)NC(=O)c1c(C)nc(-c3ccc(C(C)(C)C)cc3)nc1C)C(=O)N[C@@H](C)C(=O)N[C@H](C(=O)NCC#N)C2 (racemic) [Compound 592, rac-(8S,11S,14S)-4,17-bis(2-aminoethoxy)-N-(cyanomethyl)-3,18-dimethoxy-11-methyl-14-[methyl-[rac-(2S)-4-amino-2-[[2-(4-tert-butylphenyl)-4,6-dimethyl-pyrimidine-5-carbonyl]amino]butanoyl]amino]-10,13-dioxo-9,12-diazatricyclo[13.3.1.12,6]icosa-1(18),2(20),3,5,15(19),16-hexaene-8-carboxamide]",0.19
9,"COc1c(OC[C@H](O)CN)cc2cc1-c1cc(cc(OC[C@H](O)CN)c1OC)[C@H](N(C)C(=O)[C@H](CNS(N)(=O)=O)NC(=O)c1c(C)nc(-c3ccc(C(C)(C)C)cc3)nc1C)C(=O)N[C@@H](C)C(=O)N[C@H](C(=O)NCC#N)C2 (racemic) [Compound 593, rac-(8S,11S,14S)-N-(cyanomethyl)-3,18-dimethoxy-11-methyl-14-[methyl-[rac-(2S)-2-[[2-(4-tert-butylphenyl)-4,6-dimethyl-pyrimidine-5-carbonyl]amino]-3-(sulfamoylamino)propanoyl]amino]-10,13-dioxo-4,17-bis[rac-(2R)-3-amino-2-hydroxy-propoxy]-9,12-diazatricyclo[13.3.1.12,6]icosa-1(18),2(20),3,5,15(19),16-hexaene-8-carboxamide]",1.5

# Same assay, conditions: Escherichia coli, ATCC25922, Table 7, cation adjusted Mueller Hinton Broth + 0.002% Tween-80, 35° C., 22 hours
row,SMILES,MIC [µM]
1,"Cc1nc(-c2ccc(C(C)(C)C)cc2)nc(C)c1C(=O)N[C@@H](CNS(N)(=O)=O)C(=O)N(C)[C@@H]1C(=O)N[C@@H](C)C(=O)N[C@H](C(=O)NCC#N)Cc2ccc(OC[C@H](O)CN)c(c2)-c2cc1cc(OC[C@H](O)CN)c2O (racemic) [Compound 582, rac-(8S,11S,14S)-N-(cyanomethyl)-18-hydroxy-11-methyl-14-[methyl-[rac-(2S)-2-[[2-(4-tert-butylphenyl)-4,6-dimethyl-pyrimidine-5-carbonyl]amino]-3-(sulfamoylamino)propanoyl]amino]-10,13-dioxo-3,17-bis[rac-(2R)-3-amino-2-hydroxy-propoxy]-9,12-diazatricyclo[13.3.1.12,6]icosa-1(18),2(20),3,5,15(19),16-hexaene-8-carboxamide]",0.75
2,"COc1c(OCCN)cc2cc1-c1cc(ccc1OCCN)C[C@@H](C(=O)NCC#N)NC(=O)[C@H](C)NC(=O)[C@H]2N(C)C(=O)[C@H](CNS(N)(=O)=O)NC(=O)c1c(C)nc(-c2ccc(C(C)(C)C)cc2)nc1C (racemic) [Compound 585, rac-(8S,11S,14S)-3,17-bis(2-aminoethoxy)-N-(cyanomethyl)-18-methoxy-11-methyl-14-[methyl-[rac-(2S)-2-[[2-(4-tert-butylphenyl)-4,6-dimethyl-pyrimidine-5-carbonyl]amino]-3-(sulfamoylamino)propanoyl]amino]-10,13-dioxo-9,12-diazatricyclo[13.3.1.12,6]icosa-1(18),2(20),3,5,15(19),16-hexaene-8-carboxamide]",0.38
3,"Cc1nc(-c2ccc(C(C)(C)C)cc2)nc(C)c1C(=O)N[C@@H](CNS(N)(=O)=O)C(=O)N(C)[C@@H]1C(=O)N[C@@H](C)C(=O)N[C@H](C(=O)NCC#N)Cc2ccc(OCCN)c(c2)-c2cc1cc(OCCNC(=N)N)c2O (racemic) [Compound 590, rac-(8S,11S,14S)-3-(2-aminoethoxy)-N-(cyanomethyl)-17-(2-guanidinoethoxy)-18-hydroxy-11-methyl-14-[methyl-[rac-(2S)-2-[[2-(4-tert-butylphenyl)-4,6-dimethyl-pyrimidine-5-carbonyl]amino]-3-(sulfamoylamino)propanoyl]amino]-10,13-dioxo-9,12-diazatricyclo[13.3.1.12,6]icosa-1(18),2(20),3,5,15(19),16-hexaene-8-carboxamide]",0.38
4,"Cc1nc(-c2ccc(C(C)(C)C)cc2)nc(C)c1C(=O)N[C@@H](CCN)C(=O)N(C)[C@@H]1C(=O)N[C@@H](C)C(=O)N[C@H](C(=O)NCC#N)Cc2cc(OCCN)c(O)c(c2)-c2cc1ccc2OC[C@H](O)CN (racemic) [Compound 594, rac-(8S,11S,14S)-4-(2-aminoethoxy)-N-(cyanomethyl)-3-hydroxy-11-methyl-14-[methyl-[rac-(2S)-4-amino-2-[[2-(4-tert-butylphenyl)-4,6-dimethyl-pyrimidine-5-carbonyl]amino]butanoyl]amino]-10,13-dioxo-18-[rac-(2R)-3-amino-2-hydroxy-propoxy]-9,12-diazatricyclo[13.3.1.12,6]icosa-1(18),2(20),3,5,15(19),16-hexaene-8-carboxamide]",0.13
